Assay results from ChEMBL document CHEMBL3639120, “Pyridone and aza-pyridone compounds and methods of use” (2013).

Molecular target: Tyrosine-protein kinase BTK (Homo sapiens, UniProt Q06187)
Assay: Biochemical Assay: A generalized procedure for a standard biochemical Btk Kinase Assay that can be used to test Formula I compounds. Alternatively, the Lanthascreen assay can be used to evaluate Btk activity through quantification of its phosphorylated peptide product. The FRET (Fluorescence Resonance Energy Transfer) that occurs between the fluorescein on the peptide product and the terbium on …

Tyrosine-protein kinase BTK, sequence (Q06187 whole entry): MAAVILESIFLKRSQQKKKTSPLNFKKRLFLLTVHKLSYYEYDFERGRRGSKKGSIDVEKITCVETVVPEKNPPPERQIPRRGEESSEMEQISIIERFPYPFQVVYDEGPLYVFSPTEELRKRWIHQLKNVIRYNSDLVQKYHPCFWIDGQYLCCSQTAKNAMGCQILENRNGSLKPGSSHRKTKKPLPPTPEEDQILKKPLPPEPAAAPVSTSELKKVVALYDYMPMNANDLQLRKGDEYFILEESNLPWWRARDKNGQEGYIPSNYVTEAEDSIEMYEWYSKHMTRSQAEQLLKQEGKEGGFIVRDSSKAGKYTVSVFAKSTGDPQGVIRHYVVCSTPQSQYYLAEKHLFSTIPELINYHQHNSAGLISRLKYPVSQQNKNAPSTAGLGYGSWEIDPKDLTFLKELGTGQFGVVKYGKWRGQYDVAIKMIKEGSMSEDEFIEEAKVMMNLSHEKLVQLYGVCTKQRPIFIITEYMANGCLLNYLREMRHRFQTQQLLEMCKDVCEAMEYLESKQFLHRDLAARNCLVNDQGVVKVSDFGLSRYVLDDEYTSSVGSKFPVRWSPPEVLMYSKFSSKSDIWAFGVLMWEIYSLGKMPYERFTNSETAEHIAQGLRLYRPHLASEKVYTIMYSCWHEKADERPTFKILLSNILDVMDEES

IC50: 5.2 nM
SMILES: Cn1cc(-c2cccc(N3CCn4c(cc5c4CC(C)(C)C5)C3=O)c2CO)cc(Nc2ccc(N3CCN(C4COC4)CC3)cn2)c1=O
